Assays:
[1] = system: thylakoids from Amaranthus retroflexus, Mutant; type: biochemical; conditions: herbicide concentration 10^-6 M
[2] = system: thylakoids from Amaranthus retroflexus, Wild-type; experiment: Biosensor fluorescence response (Table D), wild-type biomediator; type: biochemical; conditions: herbicide concentration 10^-6 M
Thr226->Ala = conditions: cited from earlier work
Gly228->Arg = conditions: cited from earlier work
Tyr222->Phe = conditions: code T4; cited from earlier work
Phe216->Leu = conditions: cited from earlier work
PhC2,6―Pro = conditions: cited from earlier work
I1e229→Met = conditions: R. capsulatus; cited from earlier work
Ile229->Thr = conditions: cited from earlier work
Gly228->Val = conditions: cited from earlier work
Thr226->Met = conditions: cited from earlier work
I1e228->Leu = conditions: cited from earlier work
D1 protein Lysa)238->Val = D1 protein Lysa)238->Val (Synechocystis sp., UniProt P16033, K238V); conditions: Lysa)238->Val (Arg in other organisms); cited from earlier work
Ile229->Ser = conditions: cited from earlier work
D1 protein Ala250->Arg = D1 protein Ala250->Arg (Chlamydomonas reinhardtii, UniProt P07753, A250R); conditions: cited from earlier work
D1 protein A1a251->Cys = D1 protein A1a251->Cys (Chlamydomonas reinhardtii, UniProt P07753, A251C); conditions: cited from earlier work
I1e229->Ala = conditions: cited from earlier work
[3] = target: D1 protein Ala250→Ser Phe255→IIe (Chlamydomonas reinhardtii, UniProt P07753, A250S/F255I); conditions: cited from earlier work
D1 protein Ala250->Asp = D1 protein Ala250->Asp (Chlamydomonas reinhardtii, UniProt P07753, A250D); conditions: cited from earlier work
Phe216->Thr = conditions: cited from earlier work
PS II = PS II treated with CdCl2, refrigeration at 5°C, flow 0,2-2,0 ml/m
Description: To further increase the stability of the biomediator the usefulness of a system for the refrigeration of the solution containing herbicide forwarded into the measuring cell experimentally was observed.

D1 protein A1a250->Tyr = D1 protein A1a250->Tyr (Chlamydomonas reinhardtii, UniProt P07753, A250Y); conditions: cited from earlier work
Gly192->Asp = conditions: cited from earlier work
Ile229->Met = conditions: R. shaeroides; cited from earlier work
I1e229->Cys = conditions: cited from earlier work
monoclonal antibodies = conditions: ELISA (Schneider et al. 1994); cited from earlier work
D1 protein Ala250->Asn = D1 protein Ala250->Asn (Chlamydomonas reinhardtii, UniProt P07753, A250N); conditions: cited from earlier work
D1 protein A1a250→IIe = D1 protein A1a250→IIe (Chlamydomonas reinhardtii, UniProt P07753, A250I); conditions: cited from earlier work
Phe216→Val = conditions: cited from earlier work
D1 protein Ser284->Gly = conditions: Chenopodium album; cited from earlier work
D1 protein Phe255->Tyr = D1 protein Phe255->Tyr (Chlamydomonas reinhardtii, UniProt P07753, F255Y); conditions: code Ar207+; cited from earlier work
[4] = system: PS II isolated from thermophilic cyanobacteria; conditions: immobilized PS II, Clark electrode (Koblizek et al.); cited from earlier work
D1 protein A1a250->His = D1 protein A1a250->His (Chlamydomonas reinhardtii, UniProt P07753, A250H); conditions: cited from earlier work
[5] = target: D1 protein Phe255->Tyr Ser264->Ala (Synechococcus elongatus, UniProt P04996, F255Y/S264A); conditions: code D5; cited from earlier work
D1 protein Ser264->Thr = conditions: Nicotiana tabacum (cell culture); cited from earlier work
[6] = system: D1 protein Val219->Ile Thr220->Ala Ser270->Tyr; conditions: code L5; cited from earlier work

CCNc1nc(NC(C)C)nc(SC)n1 [Ametryn]
Area % inhibition Mutant [1]: 21% | Area % inhibition Wild-type [2]: 99% | Resistance R/S (Thr226->Ala): Ametryn 4 | Resistance R/S (Gly228->Arg): Ametryn 4 | Resistance R/S (Tyr222->Phe): Ametryn 330 | Resistance R/S (Phe216->Leu): Ametryn 3,1 | Resistance R/S (PhC2,6―Pro): Ametryn 1,9 | Resistance R/S (I1e229→Met): Ametryn 5,3 | Resistance R/S (Ile229->Thr): Ametryn 1,9 | Resistance R/S (Gly228->Val): Ametryn 5,3 | Resistance R/S (Thr226->Met): Ametryn 2,5 | Resistance R/S (I1e228->Leu): Ametryn 2,5

CCNc1nc(Cl)nc(NC(C)C)n1 [Atrazine]
Supersensitivity R/S (D1 protein Lysa)238->Val): Atrazine 0,6 | Resistance R/S (Ile229->Ser): Atrazine 1,8 | Area % inhibition Mutant [1]: 15% | Supersensitivity R/S (D1 protein Ala250->Arg): Atrazin 0.25 | Area % inhibition Wild-type [2]: 96% | Resistance R/S (Thr226->Ala): Atrazin 3,1 | Supersensitivity R/S (D1 protein A1a251->Cys): Atrazin 0,8 | Resistance R/S (I1e229->Ala): Atrazine 1,8 | Supersensitivity R/S [3]: Atrazine 0,5 | Resistance R/S (Gly228->Arg): Atrazine 5,4 | Supersensitivity R/S (D1 protein Ala250->Asp): Atrazine 0,25 | Resistance R/S (Tyr222->Phe): Atrazine >600 | Resistance R/S (Phe216->Leu): Atrazine 4,2 | Resistance R/S (PhC2,6―Pro): Atrazine 1,9 | Resistance R/S (Phe216->Thr): Atrazine 3,5 | Resistance R/S (I1e229→Met): Atrazine 5,4 | sensitivity (concentration) (PS II): lower than nanomolar | Supersensitivity R/S (D1 protein A1a250->Tyr): Atrazine 0,4 | Resistance R/S (Gly192->Asp): Atrazine 6 | Resistance R/S (Ile229->Met): Atrazine >7 | Resistance R/S (Ile229->Thr): Atrazine 3,7 | Resistance R/S (I1e229->Cys): Atrazine 2 | Resistance R/S (Gly228->Val): Atrazine 4,2 | sensitivity (monoclonal antibodies): 100 pM | Resistance R/S (Thr226->Met): Atrazine 3,1 | Supersensitivity R/S (D1 protein Ala250->Asn): Atrazine 0,3 | Supersensitivity R/S (D1 protein A1a250→IIe): Atrazine 0,5 | Resistance R/S (I1e228->Leu): Atrazine 3,5 | Resistance R/S (Phe216→Val): Atrazine 1,8

CC(C)N1C(=O)c2ccccc2NS1(=O)=O [Bentazon]
Supersensitivity R/S (D1 protein Ser284->Gly): Bentazon 0,5

CNC(=O)Nc1nc2ccccc2s1 [Benzthiazuron]
Supersensitivity R/S (D1 protein Phe255->Tyr): 0,3

CCC(C)n1c(=O)[nH]c(C)c(Br)c1=O (stereo not shown) [Bromacil]
Supersensitivity R/S (D1 protein Phe255->Tyr): Bromacil 0,9

N#Cc1cc(Br)c(O)c(Br)c1 [Bromoxynil]
Area % inhibition Mutant [1]: 95% | Supersensitivity R/S (D1 protein Ala250->Arg): Bromoxynil 0,3 | Area % inhibition Wild-type [2]: 97% | sensitivity [4]: 10^-7 mol/l | Supersensitivity R/S [3]: 0,2 | Supersensitivity R/S (D1 protein Ala250->Asp): Bromoxynil 0,16 | sensitivity (concentration) (PS II): one order of magnitude higher | Supersensitivity R/S (D1 protein A1a250->Tyr): Bromoxynil 0,4 | Supersensitivity R/S (D1 protein A1a250->His): Bromoxynil 0,16 | Supersensitivity R/S (D1 protein Ala250->Asn): Bromoxynil 0,2 | Supersensitivity R/S (D1 protein A1a250→IIe): Bromoxynil 0,3 | Supersensitivity R/S [5]: 0,8

CNc1nc(NC(C)C)nc(SC)n1 [Desmetryn]
Area % inhibition Mutant [1]: 10% | Area % inhibition Wild-type [2]: 92% | Resistance R/S (Tyr222->Phe): Desmetryn 50

CCC(C)c1cc([N+](=O)[O-])cc([N+](=O)[O-])c1O (stereo not shown) [Dinoseb]
Area % inhibition Mutant [1]: 93% | Area % inhibition Wild-type [2]: 99% | Supersensitivity R/S (D1 protein Ser264->Thr): Dinoseb 0,13 | Supersensitivity R/S [6]: Dinoseb 0,7 | Supersensitivity R/S [5]: 0,08
